We go through one compound from publication PMC6273138, “Inhibitory Effects of Aschantin on Cytochrome P450 and Uridine 5′-diphospho-glucuronosyltransferase Enzyme Activities in Human Liver Microsomes” (Molecules, 2016).

For one data set, the target named is T1, UGT1A9 (Homo sapiens, UniProt O60656).
T1 construct: using pooled human liver microsomes incubated with the cocktail of UGT substrates; tissue Corning Life Sciences 452161; host or cells: pooled human liver microsomes
T1 sequence (O60656 26-530): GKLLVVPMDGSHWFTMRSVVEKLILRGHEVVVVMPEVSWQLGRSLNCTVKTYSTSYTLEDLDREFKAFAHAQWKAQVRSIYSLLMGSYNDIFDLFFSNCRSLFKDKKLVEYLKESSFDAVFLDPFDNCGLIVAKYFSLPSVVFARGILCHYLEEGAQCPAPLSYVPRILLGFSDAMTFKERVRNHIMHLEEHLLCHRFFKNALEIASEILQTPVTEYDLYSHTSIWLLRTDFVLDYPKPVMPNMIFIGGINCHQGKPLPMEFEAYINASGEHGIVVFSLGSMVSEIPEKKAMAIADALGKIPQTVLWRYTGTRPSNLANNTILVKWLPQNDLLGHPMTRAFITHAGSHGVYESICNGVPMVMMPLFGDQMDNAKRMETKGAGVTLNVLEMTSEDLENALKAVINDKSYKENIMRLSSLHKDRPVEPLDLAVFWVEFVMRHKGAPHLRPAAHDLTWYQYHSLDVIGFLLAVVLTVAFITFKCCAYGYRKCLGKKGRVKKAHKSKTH
Put plainly: UGT1A9-catalyzed mycophenolic acid glucuronidation inhibition in pooled human liver microsomes. Type of data set: in vitro ADME. As to conditions: 0.2 µM mycophenolic acid. The method, then:
(§1) The extents of aschantin on UGT1A1, UGT1A3, UGT1A4, UGT1A6, UGT1A9, and UGT2B7 were evaluated by LC-MS/MS, using pooled human liver microsomes incubated with the cocktail of UGT substrates. The method was modified from that of Joo et al..
(§2) The metabolites formed from the six UGT cocktail substrates were simultaneously measured using the LC-MS/MS method. […] The mass spectrometer was equipped with an ESI source and was operated in both positive and negative ion modes. […] Each metabolite was quantified via SRM in the negative ion (chenodeoxycholic acid 24-acyl-β-glucuronide, 567.2 > 391.0; mycophenolic acid glucuronide, 495.2 > 318.9; propofol glucuronide, 353.3 > 177.1) and positive ion (SN-38 glucuronide, 569.0 > 393.0; trifluoperazine glucuronide, 584.2 > 408.1; N-acetylserotonin-β-D-glucuronide, 395.2 > 219.0; naloxone 3-β-D-glucuronide, 504.0 > 310.0; meloxicam, 352.0 > 115.1) modes.

The target of another data set is T2, UGT2B7 (Homo sapiens, UniProt P16662).
T2 construct: using pooled human liver microsomes incubated with the cocktail of UGT substrates; tissue Corning Life Sciences 452161; host or cells: pooled human liver microsomes
T2 sequence (P16662 24-529): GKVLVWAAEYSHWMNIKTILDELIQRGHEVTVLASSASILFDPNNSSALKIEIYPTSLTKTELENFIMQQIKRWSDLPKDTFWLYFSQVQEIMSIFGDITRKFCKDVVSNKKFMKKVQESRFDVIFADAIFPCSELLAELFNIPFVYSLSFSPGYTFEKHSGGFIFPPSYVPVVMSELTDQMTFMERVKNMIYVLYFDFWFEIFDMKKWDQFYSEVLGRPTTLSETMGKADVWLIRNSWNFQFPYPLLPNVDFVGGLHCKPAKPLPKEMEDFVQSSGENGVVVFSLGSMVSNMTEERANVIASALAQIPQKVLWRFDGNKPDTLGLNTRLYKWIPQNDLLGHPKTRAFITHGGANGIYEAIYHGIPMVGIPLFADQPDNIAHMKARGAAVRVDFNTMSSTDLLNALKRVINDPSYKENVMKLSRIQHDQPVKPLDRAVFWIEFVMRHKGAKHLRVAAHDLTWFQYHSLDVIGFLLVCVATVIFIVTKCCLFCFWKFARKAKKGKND
Put plainly: UGT2B7-catalyzed naloxone 3-β-D-glucuronidation inhibition in pooled human liver microsomes. Type of data set: in vitro ADME. The method, then:
as §1, §2

The next data set deals with CYP3A4 (Homo sapiens, UniProt P08684). In words: CYP3A4-catalyzed midazolam 1′-hydroxylase inhibition in pooled human liver microsomes. As to conditions: for IC50: CYP3A4 midazolam 1′-hydroxylase, 2.5 µM midazolam.
The next data set addresses T3, UGT1A3 (Homo sapiens, UniProt P35503).
T3 construct: using pooled human liver microsomes incubated with the cocktail of UGT substrates; tissue Corning Life Sciences 452161; host or cells: pooled human liver microsomes
T3 sequence (P35503 29-534): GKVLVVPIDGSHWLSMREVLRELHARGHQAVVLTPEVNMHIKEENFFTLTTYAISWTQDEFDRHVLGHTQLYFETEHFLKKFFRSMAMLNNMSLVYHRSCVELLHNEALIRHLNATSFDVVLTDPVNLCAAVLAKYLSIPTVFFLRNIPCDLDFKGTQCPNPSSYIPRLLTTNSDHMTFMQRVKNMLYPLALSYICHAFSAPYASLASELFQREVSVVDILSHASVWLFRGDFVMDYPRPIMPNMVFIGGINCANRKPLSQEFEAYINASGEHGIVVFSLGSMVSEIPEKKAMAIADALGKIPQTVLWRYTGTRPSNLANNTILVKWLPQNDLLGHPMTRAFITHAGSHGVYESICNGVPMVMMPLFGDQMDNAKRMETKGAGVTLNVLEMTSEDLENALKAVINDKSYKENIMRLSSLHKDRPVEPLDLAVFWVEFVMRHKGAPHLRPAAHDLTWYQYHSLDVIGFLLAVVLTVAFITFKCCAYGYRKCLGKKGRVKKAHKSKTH
In words: UGT1A3-catalyzed chenodeoxycholic acid 24-acyl-glucuronidation inhibition in pooled human liver microsomes. Type of data set: in vitro ADME. The method, then:
as §1, §2

In a further data set the target is T4, UGT1A6 (Homo sapiens, UniProt P19224).
T4 construct: using pooled human liver microsomes incubated with the cocktail of UGT substrates; tissue Corning Life Sciences 452161; host or cells: pooled human liver microsomes
T4 sequence (P19224 27-532): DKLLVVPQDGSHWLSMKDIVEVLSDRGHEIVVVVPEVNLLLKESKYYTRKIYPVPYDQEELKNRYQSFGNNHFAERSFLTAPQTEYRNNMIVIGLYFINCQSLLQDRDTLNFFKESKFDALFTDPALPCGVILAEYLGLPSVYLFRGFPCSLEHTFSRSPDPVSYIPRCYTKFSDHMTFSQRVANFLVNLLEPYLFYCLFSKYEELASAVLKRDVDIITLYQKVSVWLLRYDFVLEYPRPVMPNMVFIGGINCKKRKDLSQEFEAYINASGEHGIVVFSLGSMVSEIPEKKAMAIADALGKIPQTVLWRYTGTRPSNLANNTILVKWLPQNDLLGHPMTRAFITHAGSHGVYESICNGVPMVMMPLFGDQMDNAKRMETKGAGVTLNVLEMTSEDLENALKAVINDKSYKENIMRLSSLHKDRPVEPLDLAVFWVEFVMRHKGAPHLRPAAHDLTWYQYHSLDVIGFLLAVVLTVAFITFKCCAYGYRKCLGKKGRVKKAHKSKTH
In words: UGT1A6-catalyzed N-acetylserotonin glucuronidation inhibition in pooled human liver microsomes. The data set is classed as in vitro ADME. As to conditions: 1 µM N-acetylserotonin. The procedure:
as §1, §2

Setting [1] is: aschantin at 200 µM, human liver microsomes.

SMILES strings stand for the structures.

Sequence of CYP3A4 (P08684 2-503): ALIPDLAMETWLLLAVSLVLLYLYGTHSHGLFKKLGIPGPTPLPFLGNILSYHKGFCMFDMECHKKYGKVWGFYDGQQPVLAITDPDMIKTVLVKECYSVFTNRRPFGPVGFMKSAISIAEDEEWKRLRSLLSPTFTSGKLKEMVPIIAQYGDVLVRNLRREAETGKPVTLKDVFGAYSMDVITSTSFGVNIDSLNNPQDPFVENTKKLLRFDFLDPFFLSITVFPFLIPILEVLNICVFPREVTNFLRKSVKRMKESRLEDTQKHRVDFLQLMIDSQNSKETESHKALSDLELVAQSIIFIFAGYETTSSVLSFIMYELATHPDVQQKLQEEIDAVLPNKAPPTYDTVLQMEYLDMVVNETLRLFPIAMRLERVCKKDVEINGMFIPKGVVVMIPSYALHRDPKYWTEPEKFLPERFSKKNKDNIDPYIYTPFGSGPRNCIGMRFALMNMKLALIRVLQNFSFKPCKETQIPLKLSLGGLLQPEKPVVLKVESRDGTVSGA

On to `COc1cc([C@H]2OC[C@H]3[C@@H]2CO[C@@H]3c2ccc3c(c2)OCO3)cc(OC)c1OC` [Aschantin], for which the IC50 on UGT1A9 is 71 µM; on UGT2B7 (UGT2B7-catalyzed naloxone 3-β-D-glucuronidation, 1 µM naloxone, pooled human liver microsomes), greater than 200 µM; at CYP3A4 (IC50 No Pre-incubation, pooled human liver microsomes, no pre-incubation) it was 57.5 µM; against CYP3A4 (IC50 With Pre-incubation, 30 min pre-incubation with microsomes and NADPH), 14.4 µM; on UGT1A3 (UGT1A3-catalyzed chenodeoxycholic acid 24-acyl-glucuronidation, 2 µM chenodeoxycholic acid, pooled human liver microsomes), greater than 200 µM; against UGT1A6, 144 µM. Also, at UGT2B7 (setting [1]), the “inhibition of UGT2B7-catalyzed naloxone 3-β-D-glucuronidation” value is recorded as “not inhibited”. For the same compound, at CYP3A4 (human, pooled human liver microsomes, pH 7.4, probe midazolam (2.5 µM), 1′-hydroxylation), the IC50 shift at 0.5 h was greater than 2.5. Moreover, the “inhibition of UGT1A3-catalyzed chenodeoxycholic acid 24-acyl-glucuronidation” value against UGT1A3 (setting [1]) is “not inhibited”.
